Assay results as given in patent US20240285571A1, “METHODS OF TREATING BONE INFECTIONS” (MICROBION CORPORATION, priority 2020, published 2024).

How the values were obtained:
[1] = tested on: relevant ATCC QC organisms; details: S. aureus ATCC 29213; CLSI established QC range; cited from earlier work
[2] = tested on: vancomycin-intermediate Staphylococcus aureus; test: Broth microdilution MIC (Example 6); assay type: cell-based
Protocol: (§1) Test Compounds: The test agents BisEDT (MB-1-B3; Lot No. ED268-1-11-01), MB-2B, and MB-6 were stored at room temperature, in the dark, until assayed. The solvent and diluent for the test agents was DMSO (Sigma; St. Louis, MO; Lot No. SHBB9319V) and the prepared stock concentration was 6,464 μg/mL (101× the final test concentration).
(§2) Test compounds were evaluated at a concentration range of 0.06-64 μg/mL. For Gram-negative test isolates, amikacin and ceftazidime (alone and with clavulanate at a fixed concentration of 4 μg/mL) were evaluated over a concentration range of 0.06-64 μg/mL; meropenem and levofloxacin were evaluated over a concentration range of 0.008-8 μg/mL. For the testing of S. aureus, clindamycin, daptomycin, levofloxacin and vancomycin were evaluated at a concentration range of 0.008-8 μg/mL; linezolid was tested from 0.03-32 μg/mL.
(§3) Media: Cation-adjusted Mueller Hinton broth (CAMHB; BD; Lot No. 8190586) was used as the medium for testing (2, 3). For testing daptomycin, calcium was supplemented with […] Ca^2+, resulting in a final concentration of […] Ca^2+ (2, 3).
(§4) MIC Assay Procedure: MIC values were determined using a broth microdilution procedure described by CLSI (2, 3). Automated liquid handlers (Multidrop 384, Labsystems, Helsinki, Finland; Biomek 2000 and Biomek F X, Beckman Coulter, Fullerton CA) were used to conduct serial dilutions and liquid transfers.
(§5) To prepare the drug mother plates, which would provide the serial drug dilutions for the replicate daughter plates, the wells of columns 2 through 12 of standard 96-well microdilution plates (Costar 3795) were filled with 150 μl of the appropriate diluent for each row of drug. The test articles and comparator compounds (300 μl at 101× the highest concentration to be tested) were dispensed into the appropriate wells in column 1. The Biomek 2000 was then used to make 2-fold serial dilutions in the mother plates from column 1 through column 11. The wells of column 12 contained no drug and served as the organism growth control wells for the assay.
(§6) The daughter plates were loaded with 190 μL per well of RPMI using the Multidrop 384. The test panels were prepared on the Biomek FX instrument which transferred 2 μL of drug solution from each well of a mother plate to the corresponding well of each daughter plate in a single step.
(§7) A standardized inoculum of each test organism was prepared per CLSI methods to equal a 0.5 McFarland standard, followed by a dilution of 1:20. The plates were then inoculated with 10 μL of the diluted inoculum using the Biomek 2000 from low to high drug concentration resulting in a final concentration of approximately 5×10^5 CFU/mL.
(§8) Plates were stacked 3-4 high, covered with a lid on the top plate, placed into plastic bags, and incubated at 35° C. for 16 to 20 hr (vancomycin was read for S. aureus after 24 hr incubation time). The MIC was recorded as the lowest concentration of drug that inhibited visible growth of the organism.

[3] = tested on: relevant ATCC QC organisms; test: Broth microdilution MIC, QC (Example 6); assay type: cell-based; details: S. aureus ATCC 29213
Protocol: as §1, §2
Organisms: The test organisms as shown in Tables 11-15 consisted of clinical isolates from the Micromyx (MMX) repository and reference strains from the American Type Culture Collection (ATCC; Manassas, VA), National Collection of Type Cultures (NCTC; Public Health England, Salisbury, UK), the Network on Antimicrobial Resistance in Staphylococcus aureus (NARSA; BEI Resources, Manassas, VA), and the Centers for Disease Control and Prevention (CDC; Atlanta, GA). The test organisms were maintained frozen at −80° C. Prior to testing, the isolates were cultured on Tryptic Soy Agar with 5% sheep blood (BAP; Becton Dickson [BD]/BBL; Sparks, MD; Lot Nos. 9080650 and 9108563) at 35° C. Relevant ATCC quality control (QC) organisms (Table 16) were included during testing in accordance with CLSI guidelines (3). Further details on the genetic characterization of the isolates where available can be found in Table 17.
as §3, §4, §5, §6, §7, §8

[4] = tested on: non-speciated Corynebacterium; test: MIC of baseline clinical isolates (Example 8); assay type: cell-based; details: Corynebacterium non-speciated baseline isolates (N′ = 2), central laboratory, mITT
Protocol: (§9) Microbiology was assessed on Day 1 and at the time of any subsequent surgical procedure at the index site. Samples were collected from the infected bone site or involved tissue adjacent to any implant(s), swabs of the deep infection site, and the superficial tissue/wound closure/sinus tract site. Isolation and identification of aerobic and anerobic bacteria was conducted at a central microbiology laboratory (IHMA, Schaumburg, IL) and susceptibility of the isolates to MBN-101 (BisEDT) and comparator agents was performed per Clinical and Laboratory Standards Institute (CLSI). Parallel sets of samples were analyzed by the local clinical site laboratory to guide patient antibiotic treatment.

Streptococcus oralis = test: MIC of baseline clinical isolates (Example 8); assay type: cell-based; details: Streptococcus oralis baseline isolates (N′ = 1), central laboratory, mITT
Protocol: as §9

[5] = tested on: Corynebacterium amycolatum; test: MIC of baseline clinical isolates (Example 8); assay type: cell-based; details: Corynebacterium amycolatum baseline isolates (N′ = 1), central laboratory, mITT
Protocol: as §9

Dermabacter hominis = test: MIC of baseline clinical isolates (Example 8); assay type: cell-based; details: Dermabacter hominis baseline isolates (N′ = 1), central laboratory, mITT
Protocol: as §9

[6] = tested on: Corynebacterium resistens; test: MIC of baseline clinical isolates (Example 8); assay type: cell-based; details: Corynebacterium resistens baseline isolates (N′ = 1), central laboratory, mITT
Protocol: as §9

Corynebacterium jeikeium = test: MIC of baseline clinical isolates (Example 8); assay type: cell-based; details: Corynebacterium jeikeium baseline isolates (N′ = 2), central laboratory, mITT
Protocol: as §9

Staphylococcus arlettae = test: MIC of baseline clinical isolates (Example 8); assay type: cell-based; details: Staphylococcus arlettae baseline isolates (N′ = 1), central laboratory, mITT
Protocol: (§10) Microbiology was assessed on Day 1 and at the time of any subsequent surgical procedure at the index site. Samples were collected from the infected bone site or involved tissue adjacent to any implant(s), swabs of the deep infection site, and the superficial tissue/wound closure/sinus tract site. […] Parallel sets of samples were analyzed by the local clinical site laboratory to guide patient antibiotic treatment.

Staphylococcus pasteuri = test: MIC of baseline clinical isolates (Example 8); assay type: cell-based; details: Staphylococcus pasteuri baseline isolates (N′ = 1), central laboratory, mITT
Protocol: as §10

S. aureus (MRSA, MSSA) = test: MIC of baseline clinical isolates (Example 8); assay type: cell-based; details: Staphylococcus aureus, MRSA baseline isolates (N′ = 4), central laboratory, mITT
Protocol: as §10

[7] = tested on: Staphylococcus haemolyticus; test: MIC of baseline clinical isolates (Example 8); assay type: cell-based; details: Staphylococcus haemolyticus baseline isolates (N′ = 1), central laboratory, mITT
Protocol: as §10

S. epidermidis = test: MIC of baseline clinical isolates (Example 8); assay type: cell-based; details: Staphylococcus epidermidis baseline isolates (N′ = 5), central laboratory, mITT
Protocol: as §10

Staphylococcus hominis = test: MIC of baseline clinical isolates (Example 8); assay type: cell-based; details: Staphylococcus hominis baseline isolates (N′ = 1), central laboratory, mITT
Protocol: as §10

[8] = tested on: Staphylococcus lugdunensis; test: MIC of baseline clinical isolates (Example 8); assay type: cell-based; details: Staphylococcus lugdunensis baseline isolates (N′ = 3), central laboratory, mITT
Protocol: as §10

[9] = S. aureus isolate NRS 1 (hVISA)
[10] = S. aureus isolate NRS 24 (hVISA)

CC(=O)NC[C@H]1CN(c2ccc(N3CCOCC3)c(F)c2)C(=O)O1 [LZD]
MIC QC range (in parentheses) [1]: (1-4) μg/mL
MIC [2, 9]: 1 mg/L
MIC ([2]; S. aureus isolate NRS 2): 4 mg/L
MIC ([2]; S. aureus isolate NRS 3): 1 mg/L
MIC ([2]; S. aureus isolate NRS 4): 1 mg/L
MIC ([2]; S. aureus isolate NRS 13): 2 mg/L
MIC ([2]; S. aureus isolate NRS 18): 1 mg/L
MIC ([2]; S. aureus isolate NRS 22): 1 mg/L
MIC [2, 10]: 2 mg/L
MIC ([2]; S. aureus isolate NRS 27): 2 mg/L
MIC [3]: 4 mg/L
Mean MIC [4]: 0.18 mg/L
n (% resistant) [4]: 0 (0.0) n (%)
Mean MIC (Streptococcus oralis): 1.00 mg/L
n (% resistant) (Streptococcus oralis): 0 (0.0) n (%)
Mean MIC [5]: 0.12 mg/L
n (% resistant) [5]: 0 (0.0) n (%)
Mean MIC (Dermabacter hominis): 0.50 mg/L
n (% resistant) (Dermabacter hominis): 0 (0.0) n (%)
Mean MIC [6]: 0.25 mg/L
n (% resistant) [6]: 0 (0.0) n (%)
Mean MIC (Corynebacterium jeikeium): 0.38 mg/L
n (% resistant) (Corynebacterium jeikeium): 0 (0.0) n (%)
Mean MIC (Staphylococcus arlettae): 2.00 mg/L
n (% resistant) (Staphylococcus arlettae): 0 (0.0) n (%)
Mean MIC (Staphylococcus pasteuri): 1.00 mg/L
n (% resistant) (Staphylococcus pasteuri): 0 (0.0) n (%)
Mean MIC (S. aureus (MRSA, MSSA)): 1.25 mg/L
n (% resistant) (S. aureus (MRSA, MSSA)): 0 (0.0) n (%)
Mean MIC [7]: 1.00 mg/L
n (% resistant) [7]: 0 (0.0) n (%)
Mean MIC (S. epidermidis): 0.80 mg/L
n (% resistant) (S. epidermidis): 0 (0.0) n (%)
Mean MIC (Staphylococcus hominis): 0.50 mg/L
n (% resistant) (Staphylococcus hominis): 0 (0.0) n (%)
Mean MIC [8]: 0.83 mg/L
n (% resistant) [8]: 0 (0.0) n (%)

CN[C@H](CC(C)C)C(=O)N[C@H]1C(=O)N[C@@H](CC(N)=O)C(=O)N[C@H]2C(=O)N[C@H]3C(=O)N[C@H](C(=O)N[C@H](C(=O)O)c4cc(O)cc(O)c4-c4cc3ccc4O)[C@H](O)c3ccc(c(Cl)c3)Oc3cc2cc(c3O[C@@H]2O[C@H](CO)[C@@H](O)[C@H](O)[C@H]2O[C@H]2C[C@](C)(N)[C@H](O)[C@H](C)O2)Oc2ccc(cc2Cl)[C@H]1O [VAN]
MIC QC range (in parentheses) [1]: (0.5-2) μg/mL
MIC [2, 9]: 4 mg/L
MIC ([2]; S. aureus isolate NRS 2): 0.5 mg/L
MIC ([2]; S. aureus isolate NRS 3): 8 mg/L
MIC ([2]; S. aureus isolate NRS 4): 4 mg/L
MIC ([2]; S. aureus isolate NRS 13): 2 mg/L
MIC ([2]; S. aureus isolate NRS 18): 4 mg/L
MIC ([2]; S. aureus isolate NRS 22): 4 mg/L
MIC [2, 10]: 2 mg/L
MIC ([2]; S. aureus isolate NRS 27): 2 mg/L
MIC [3]: 0.5 mg/L
Mean MIC [4]: 0.12 mg/L
n (% resistant) [4]: 0 (0.0) n (%)
Mean MIC (Streptococcus oralis): 0.50 mg/L
n (% resistant) (Streptococcus oralis): 0 (0.0) n (%)
n (% resistant) [5]: 0 (0.0) n (%)
Mean MIC (Dermabacter hominis): 0.25 mg/L
n (% resistant) (Dermabacter hominis): 0 (0.0) n (%)
Mean MIC [6]: 1.00 mg/L
n (% resistant) [6]: 0 (0.0) n (%)
n (% resistant) (Corynebacterium jeikeium): 0 (0.0) n (%)
Mean MIC (Staphylococcus arlettae): 2.00 mg/L
n (% resistant) (Staphylococcus arlettae): 0 (0.0) n (%)
Mean MIC (Staphylococcus pasteuri): 1.00 mg/L
n (% resistant) (Staphylococcus pasteuri): 0 (0.0) n (%)
Mean MIC (S. aureus (MRSA, MSSA)): 1.25 mg/L
n (% resistant) (S. aureus (MRSA, MSSA)): 0 (0.0) n (%)
Mean MIC [7]: 1.00 mg/L
Mean MIC (S. epidermidis): 150 mg/L
n (% resistant) (S. epidermidis): 0 (0.0) n (%)
Mean MIC (Staphylococcus hominis): 2.00 mg/L
n (% resistant) (Staphylococcus hominis): 0 (0.0) n (%)
Mean MIC [8]: 0.83 mg/L
n (% resistant) [8]: 0 (0.0) n (%)
